These results are taken from patent US10479792B2, “Compounds” (GlaxoSmithKline Intellectual Property Development Limited, priority 2015, dated 2019).

Structures are written as SMILES.

In assay [1] the test system is Leishmania donovani. The assay is described as follows: Leishmania donovani intracellular assay (Assay 5). It is filed as cell-based. The following applies: THP-1, 96 h, eGFP amastigotes in THP-1 cells, 96 h incubation, read-out: pEC50 value against Leishmania donovani (converted). As for the experimental part:
Assay 5. Leishmania donovani Intracellular Assay
Compounds were dispensed into black 384-well assay plates (Greiner) by acoustic dispensing (LabCyte ECHO). For potency determinations, eleven-point, one in three dilution curves were generated, with a top concentration of 50 μM. THP-1 human monocytes cells were dispensed in T225 tissue culture flasks and differentiated using 30 nM of PMA, after 24 hours they were infected overnight using Leishmania donovani expressing Green Fluorescent Protein (eGFP) amastigotes in the same T225 tissue culture flasks at a multiplicity of infection of 10. Next, any remaining free amastigotes were washed away with PBS and the infected THP-1 cells were harvested by trypsinisation. The infected cells were then plated into 384-well plates containing the compounds to be tested, at 3000 cells per well in RPMI media with 2% FBS and 25 mM Sodium bicarbonate. After 96 h incubation at 37° C. in presence of 5% CO2, the plates were fixed with 4% formaldehyde for 30 minutes, washed with PBS and stained with 0.1 mg/mL of DAPI for 30 minutes and washed again with PBS. The plates were imaged on a Perkin Elmer Opera high-content imaging system using a 20× air objective with two expositions, one for DAPI stain and other for eGFP. Images were analysed using the Acapella building blocks system (Perkin Elmer). The image analysis algorithm first identified the THP-1 nuclei followed by demarcation of the cytoplasm and identification of intracellular amastigotes. This algorithm reported mean number of parasites per THP-1 cell, the percentage of infected THP-1 cells and the total number of THP-1 cells.

Assay [2] deals with Leishmania donovani. The assay is described as follows: Intramacrophage Leishmania donovani assay (Assay 1), average number of amastigotes per cell (potency readout). Format: cell-based. The following applies: THP-1, 96 h, amastigotes in PMA-differentiated THP-1 macrophages, 96 h incubation, read-out: pEC50 value against Leishmania donovani (converted). As for the experimental part: Assay 1. Intramacrophage Leishmania donovani Assay
The intramacrophage Leishmania assay was performed using a modified version of the method described in De Rycker et al. (Antimicrob Agents Chemother. 2013 July; 57(7):2913-22. Comparison of a high-throughput high-content intracellular Leishmania donovani assay with an axenic amastigote assay. De Rycker M, Hallyburton I, Thomas J, Campbell L, Wyllie S, Joshi D, Cameron S, Gilbert I H, Wyatt P G, Frearson J A, Fairlamb A H, Gray D W.). Procedure: 350 nl of compound was pre-dispensed into 384 well sterile intermediary plates. For single point screening, amphotericin B was added to all wells of column 24 as a positive control (final concentration 2 μM) and DMSO to column 23. For potency determinations, ten-point, one in three dilution curves were created with the highest concentration being 50 μM and on each plate a control curve of amphotericin B was included. Controls were as follows: columns 11 and 12: DMSO, columns 23 and 24: amphotericin B (final concentration 2 μM). To the intermediary plates, 35 μl of THP-1 media was added and plates were shaken for >5 min to ensure complete mixing. THP-1 cells (8,000 per well, 50 μl) were plated into black clear-bottom 384 well plates (Corning) in presence of 20 nM PMA. After 20 min at RT, the plates were incubated at 37° C. under 5% CO2 in a humidified incubator for 75 h. The cells were then washed with […] sterile phosphate buffered saline (PBS) supplemented with 1 mM CaCl2, 0.5 mM MgCl2, 0.1% (w/v) bovine serum albumin (PBS-A) and amastigotes were added to all wells at a multiplicity of infection of 5 (40,000 amastigotes per well). After 40 min at RT, plates were returned to the incubator. Amastigotes were incubated in the presence of THP-1 macrophages for 16 h. Any remaining extracellular amastigotes were subsequently removed with an overflow wash of 1 mL PBS-A per well (wash buffer is being aspirated from the top of the well as it is being dispensed) followed by addition of 25 μl of the compound pre-dilutions using a Fluidx Ipette-pro pipetting station. The final dilution of each compound was 200-fold. Plates were incubated for 96 h and then washed (250 μl PBS-A) and fixed (4% (v/v) formaldehyde-PBS, 30 min, RT). After fixation, the wells were washed with 250 μl PBS, stained (10 μg/mL DAPI, 0.4 μg mL-1 HCS Cellmask Deep Red in PBS+0.1% (v/v) Triton X-100, 30 min, RT) and washed with 250 μl PBS. Finally, PBS+0.05% (v/v) thimerosal was added to the wells, the plates were sealed and imaged on a high-content microscope (GE IN Cell 2000) using a 10× objective. Image analysis was carried out with GE IN Cell Analyzer 1000 Workstation using the “Multi Target Analysis” module. Settings for segmentation were as follows: nuclei: minimum area: 142.384 μm2, sensitivity: 81, method: top-hat; cells: characteristic area: 2500 μm2, sensitivity: 60, method: multiscale top-hat; organelles (amastigotes): granule size 1-3, 3 scales, sensitivity: 90, detection in entire cell. For each well, i) THP-1 cell count (cytotoxicity readout) and ii) average number of amastigotes per cell (potency readout) were calculated, both in terms of pEC50 values.

On to `O=C(Nc1cccc(-c2ccn3c(N4CCOCC4)cnc3n2)c1)N1CCCC1` [Example 1, N-(3-(3-morpholinoimidazo[1,2-a]pyrimidin-7-yl)phenyl)pyrrolidine-1-carboxamide], for which the values for the EC50 with Leishmania donovani [1] and in the assay on Leishmania donovani [2] were 0.126 to 10 µM and 0.251 to 10 µM, respectively. For the compound `O=C(Nc1ccc(F)c(-c2cnn3c(Br)cnc3n2)c1)N1CCCC1` [Example 6, N-(3-(7-bromoimidazo[1,2-b][1,2,4]triazin-3-yl)-4-fluorophenyl)pyrrolidine-1-carboxamide], the EC50 in the assay with Leishmania donovani [2] is 0.251 to 10 µM. For the compound `O=C(Nc1ccc(F)c(-c2cnn3c(N4CCOCC4)cnc3n2)c1)N1CCCC1` [Example 8, N-(4-fluoro-3-(7-morpholinoimidazo[1,2-b][1,2,4]triazin-3-yl)phenyl)pyrrolidine-1-carboxamide], in the assay on Leishmania donovani [2], the EC50 was 0.251 to 10 µM.

On to `O=C(Nc1cccc(-c2cnn3c(N4CCOCC4)cnc3n2)c1)N1CCCC1` [Example 9, N-(3-(7-morpholinoimidazo[1,2-b][1,2,4]triazin-3-yl)phenyl)pyrrolidine-1-carboxamide], for which the EC50 in the assay on Leishmania donovani [2] is 0.251 to 10 µM. Same read-out and setting: with `O=C(Nc1cccc(-c2cnn3c(-c4ccccc4)cnc3n2)c1)N1CCCC1` [Example 10, N-(3-(7-phenylimidazo[1,2-b][1,2,4]triazin-3-yl)phenyl)pyrrolidine-1-carboxamide] the figure was 0.251 to 10 µM; with `O=C(Nc1ccc(F)c(-c2cnn3ccnc3n2)c1)N1CCCC1` [Example 11, N-(4-fluoro-3-(imidazo[1,2-b][1,2,4]triazin-3-yl)phenyl)pyrrolidine-1-carboxamide], 12.6 to 20 µM. For `Cc1cc(-c2cc(NC(=O)N3CCCC3)ccc2F)nc2ncc(N3CCOCC3)n12` [Example 12, N-(4-fluoro-3-(5-methyl-3-morpholinoimidazo[1,2-a]pyrimidin-7-yl)phenyl)pyrrolidine-1-carboxamide], the EC50 in the assay with Leishmania donovani [1] was 0.126 to 10 µM; in the assay on Leishmania donovani [2], 0.251 to 10 µM.

On to `CCc1cc(-c2cc(NC(=O)N3CCCC3)ccc2F)nc2ncc(N3CCOCC3)n12` [Example 13, N-(3-(5-ethyl-3-morpholinoimidazo[1,2-a]pyrimidin-7-yl)-4-fluorophenyl)pyrrolidine-1-carboxamide], for which the EC50 in the assay on Leishmania donovani [1] is 0.126 to 10 µM; in the assay with Leishmania donovani [2] it was 0.251 to 10 µM.

As for `Cc1cn2c(N3CCOCC3)cnc2nc1-c1cccc(NC(=O)N2CCCC2)c1` [Example 14, N-(3-(6-methyl-3-morpholinoimidazo[1,2-a]pyrimidin-7-yl)phenyl)pyrrolidine-1-carboxamide], the values for the EC50 in the assay on Leishmania donovani [1] and in the assay with Leishmania donovani [2] were 12.6 to 39.8 µM and > 50.1 µM, respectively. For `Cc1cn2c(N3CCOCC3)cnc2nc1-c1cc(NC(=O)N2CCCC2)ccc1F` [Example 15, N-(4-fluoro-3-(6-methyl-3-morpholinoimidazo[1,2-a]pyrimidin-7-yl)phenyl)pyrrolidine-1-carboxamide], the EC50 in the assay on Leishmania donovani [1] is 12.6 to 39.8 µM; in the assay on Leishmania donovani [2], 12.6 to 20 µM. In the case of `CC(C)c1cnc2nc(-c3cc(NC(=O)N4CCCC4)ccc3F)ccn12` [Example 18, N-(4-fluoro-3-(3-isopropylimidazo[1,2-a]pyrimidin-7-yl)phenyl)pyrrolidine-1-carboxamide], the EC50 was 0.126 to 10 µM in the assay on Leishmania donovani [1] and 0.251 to 10 µM with Leishmania donovani [2]. Regarding `O=C(Nc1ccc(F)c(-c2ccn3c(CN4CCOCC4)cnc3n2)c1)N1CCCC1` [Example 20, N-(4-fluoro-3-(3-(morpholinomethyl)imidazo[1,2-a]pyrimidin-7-yl)phenyl)pyrrolidine-1-carboxamide], the figures for the EC50 with Leishmania donovani [1] and with Leishmania donovani [2] were 0.126 to 10 µM and 12.6 to 20 µM, respectively. Take `O=C(Nc1ccc(F)c(-c2ccn3c(-c4ccc(CN5CCOCC5)cc4)cnc3n2)c1)N1CCCC1` [Example 21, N-(4-fluoro-3-(3-(4-(morpholinomethyl)phenyl)imidazo[1,2-a]pyrimidin-7-yl)phenyl)pyrrolidine-1-carboxamide]: the EC50 in the assay on Leishmania donovani [1] is 0.126 to 10 µM; in the assay on Leishmania donovani [2], 0.251 to 10 µM. `O=C(Nc1ccc(F)c(-c2ccn3c(N4CCOCC4)cnc3n2)c1)N1CC[C@@H](F)C1` [Example 23, 3-fluoro-N-(4-fluoro-3-(3-morpholinoimidazo[1,2-a]pyrimidin-7-yl)phenyl)pyrrolidine-1-carboxamide]: the EC50 in the assay with Leishmania donovani [1] is 0.126 to 10 µM. For `C[C@H]1CCN(C(=O)Nc2ccc(F)c(-c3ccn4c(N5CCOCC5)cnc4n3)c2)C1` [Example 34a], the EC50 with Leishmania donovani [2] was 0.251 to 10 µM. In the case of `O=C(Nc1ccc(F)c(-c2ccn3c(C4COCCN4)cnc3n2)c1)N1CCCC1` (centres unmarked) [Example 38, N-(4-fluoro-3-(3-(morpholin-3-yl)imidazo[1,2-a]pyrimidin-7-yl)phenyl)pyrrolidine-1-carboxamide], in the assay on Leishmania donovani [2], the EC50 is 12.6 to 20 µM.

As for `O=C(Nc1ccc(F)c(-c2ccn3c(CC4CCCO4)cnc3n2)c1)N1CCCC1` (centres unmarked) [Example 45, N-(4-fluoro-3-(3-((tetrahydrofuran-2-yl)methyl)imidazo[1,2-a]pyrimidin-7-yl)phenyl)pyrrolidine-1-carboxamide], in the assay on Leishmania donovani [1], the EC50 is 0.126 to 10 µM. Take `O=C(Nc1ccc(F)c(-c2ccn3c(N4CCOCC4)cnc3n2)c1)N1CCC1` [Example 51, N-(4-fluoro-3-(3-morpholinoimidazo[1,2-a]pyrimidin-7-yl)phenyl)azetidine-1-carboxamide]: the EC50 in the assay with Leishmania donovani [1] is 0.126 to 10 µM.

As for `O=C1CN(c2cnc3nc(-c4cc(NC(=O)N5CCCC5)ccc4F)ccn23)CCN1` [Example 52, N-(4-fluoro-3-(3-(3-oxopiperazin-1-yl)imidazo[1,2-a]pyrimidin-7-yl)phenyl)pyrrolidine-1-carboxamide], the EC50 in the assay with Leishmania donovani [2] was > 50.1 µM.

Regarding `N#Cc1ccc(NC(=O)N2CCCC2)cc1-c1ccn2c(N3CCOCC3)cnc2n1` [N-(4-cyano-3-(3-morpholinoimidazo[1,2-a]pyrimidin-7-yl)phenyl)pyrrolidine-1-carboxamide], the EC50 in the assay with Leishmania donovani [2] is > 50.1 µM. As for `Cc1cc(F)c(-c2ccn3c(N4CCOCC4)cnc3n2)cc1NC(=O)N1CCCC1` [N-(4-fluoro-2-methyl-5-(3-morpholinoimidazo[1,2-a]pyrimidin-7-yl)phenyl)pyrrolidine-1-carboxamide], the EC50 with Leishmania donovani [2] was > 50.1 µM. For the compound `CC1(C)CCCN1C(=O)Nc1ccc(F)c(-c2ccn3c(N4CCOCC4)cnc3n2)c1` [N-(4-fluoro-3-(3-morpholinoimidazo[1,2-a]pyrimidin-7-yl)phenyl)-2,2-dimethylpyrrolidine-1-carboxamide], the EC50 in the assay on Leishmania donovani [2] is > 50.1 µM. Regarding `CC1(C)CN(C(=O)Nc2ccc(F)c(-c3ccn4c(N5CCOCC5)cnc4n3)c2)C1` [N-(4-fluoro-3-(3-morpholinoimidazo[1,2-a]pyrimidin-7-yl)phenyl)-3,3-dimethylazetidine-1-carboxamide], the EC50 in the assay on Leishmania donovani [2] is > 50.1 µM. The same measure, in the same setting: with `CC1(C)CCN(C(=O)Nc2ccc(F)c(-c3ccn4c(N5CCOCC5)cnc4n3)c2)C1` [N-(4-fluoro-3-(3-morpholinoimidazo[1,2-a]pyrimidin-7-yl)phenyl)-3,3-dimethylpyrrolidine-1-carboxamide] the figure was > 50.1 µM.
